Data taken from the NIST ThermoML archive (doi:10.1016/j.jct.2013.05.036).
Numbers after ± are expanded uncertainties.

Settings: 101.33 kPa, Liquid, Levitation methods

Compound	viscosity (2900 K) [mPa·s]	viscosity (2950 K) [mPa·s]	viscosity (3000 K) [mPa·s]	viscosity (3050 K) [mPa·s]	viscosity (3100 K) [mPa·s]	viscosity (3150 K) [mPa·s]	viscosity (3200 K) [mPa·s]	viscosity (3250 K) [mPa·s]	viscosity (3300 K) [mPa·s]	viscosity (3350 K) [mPa·s]	viscosity (3400 K) [mPa·s]	viscosity (3450 K) [mPa·s]	viscosity (3500 K) [mPa·s]	viscosity (3550 K) [mPa·s]	viscosity (3600 K) [mPa·s]	other results
[Mo] [molybdenum]	5 ± 1	4.8 ± 1	4.6 ± 0.9	4.5 ± 0.9	4.3 ± 0.9	4.2 ± 0.8										viscosity (2573 K): 6.7 ± 1.4 mPa·s; viscosity (2600 K): 6.6 ± 1.4 mPa·s; viscosity (2650 K): 6.2 ± 1.3 mPa·s; viscosity (2700 K): 5.9 ± 1.2 mPa·s; viscosity (2750 K): 5.7 ± 1.2 mPa·s; viscosity (2800 K): 5.4 ± 1.1 mPa·s; viscosity (2850 K): 5.2 ± 1.1 mPa·s; viscosity (2896 K): 5 ± 1 mPa·s; viscosity (3213 K): 4 ± 0.8 mPa·s
[Os] [osmium]																viscosity (3265 K): 7.4 ± 1.5 mPa·s; viscosity (3290 K): 7.2 ± 1.5 mPa·s; viscosity (3306 K): 7 ± 1.4 mPa·s; viscosity (3315 K): 7 ± 1.4 mPa·s; viscosity (3340 K): 6.7 ± 1.4 mPa·s; viscosity (3365 K): 6.5 ± 1.4 mPa·s; viscosity (3390 K): 6.3 ± 1.3 mPa·s; viscosity (3415 K): 6.1 ± 1.3 mPa·s; viscosity (3440 K): 6 ± 1.2 mPa·s; viscosity (3465 K): 5.8 ± 1.2 mPa·s; viscosity (3490 K): 5.6 ± 1.2 mPa·s; viscosity (3515 K): 5.5 ± 1.1 mPa·s; viscosity (3542 K): 5.3 ± 1.1 mPa·s
[Re] [rhenium]				14.6 ± 3	13.9 ± 2.8	13.2 ± 2.7	12.5 ± 2.5	12 ± 2.4	11.4 ± 2.3	10.9 ± 2.2	10.4 ± 2.1	10 ± 2	9.6 ± 1.9	9.2 ± 1.9	8.8 ± 1.8	viscosity (3034 K): 14.9 ± 3 mPa·s; viscosity (3459 K): 9.9 ± 2 mPa·s; viscosity (3650 K): 8.5 ± 1.7 mPa·s; viscosity (3675 K): 8.4 ± 1.7 mPa·s
[Ta] [tantalum]	13.1 ± 2.7	12.4 ± 2.5	11.7 ± 2.4	11.1 ± 2.3	10.6 ± 2.2	10.1 ± 2.1	9.6 ± 2	9.2 ± 1.9	8.8 ± 1.8	8.4 ± 1.7	8.1 ± 1.6	7.8 ± 1.6	7.5 ± 1.5			viscosity (2880 K): 13.4 ± 2.7 mPa·s; viscosity (3293 K): 8.9 ± 1.8 mPa·s; viscosity (3514 K): 7.4 ± 1.5 mPa·s
[W] [tungsten]							15.7 ± 3.3	14.6 ± 3	13.7 ± 2.8	12.8 ± 2.6	12 ± 2.5	11.3 ± 2.3	10.6 ± 2.2	10 ± 2.1	9.4 ± 1.9	viscosity (3155 K): 16.7 ± 3.5 mPa·s; viscosity (3634 K): 9.1 ± 1.9 mPa·s; viscosity (3695 K): 8.5 ± 1.7 mPa·s
